The subject of series [1] is phosphorylated SYK (tyrosine 525/526). Kind of series: Immunoblot of phospho-SYK Tyr525/526. Type of series: cell-based, human. The note with it: MOLM-13, MV4-11, and OCI-AML3, 10-min treatment. The protocol:
(§1) Cell lines were serum starved overnight followed by a 10-min treatment. Cells were washed in ice-cold PBS then lysed in 1X Cell Lysis Buffer (CST) supplemented with proteinase and phosphatase inhibitors cocktail (Roche). Pierce BCA Protein Assay was used to quantify the protein lysates (Thermo Fisher Scientific, Waltham, MA). For Immunoblotting, 15–25 μg of protein lysate was prepared in 2X or 4X Laemmeli’s sample buffer (Bio-Rad Laboratories, Hercules, CA) and heated for 5 min at 100 °C. Samples were separated on 8% sodium dodecyl sulfate polyacrylamide gel and transferred onto nitrocellulose membrane (Bio-Rad Laboratories, Hercules, CA). The membranes were blocked for 1 h in Blocker BLOTTO Blocking Buffer (Thermo Fisher Scientific, Waltham, MA) or 5% non-fat milk followed by overnight incubation at 4 °C with primary antibody followed by HRP-conjugated secondary antibodies and visualized with chemiluminescent Pierce ECL Substrate (Thermo Fisher Scientific, Waltham, MA) on X-ray films.
Fig. 3 ARQ 531 modulates AML pro-survival kinases. Immunoblot analysis for MOLM-13, MV4-11, and OCI-AML3 AML cell lines (representative of 2-3 independent blots). […] Twenty to 25 μg of total protein lysate was loaded per lane. GAPDH, HSP90, or β-Actin were used as loading controls. a, b Modulation of phosphorylated SFK and downstream targets in FLT3-ITD cell lines MOLM-13 and MV-11, respectively. c, d Modulation of phosphorylated SYK and BTK in all three cell lines

The test system of series [2] is primary AML patient blasts. Kind of series: Colony-Forming Unit-Granulocyte and Macrophage (CFU-GM) assay. In kind it is cell-based, human. Particulars: 0.1 µM, colonies counted after 14 days. The protocol:
Primary AML patient samples were treated and plated at 5000–10,000 cells in 1.1 ml methylcellulose supplemented with recombinant human stem cell factor, interleukin 3, granulocyte colony-stimulating factor, and granulocyte-macrophage colony-stimulating factor (MethoCult™, […] Technologies, Vancouver, Canada) per dish in duplicates. Colonies were counted after 14 days when using primary patient samples.
(§2) MTS proliferation assay using a human stroma co-culture assay. […] FLT3 wild-type (WT) samples (red) and FLT3-ITD (black). Colony-Forming Unit-Granulocyte and Macrophage (CFU-GM) assay. […] Number of colonies were counted after 14 days (c)

Series [3] relates to Ba/F3 FLT3-ITD pMIT SYK-TEL.
Method: (§3) CellTiter 96 Aqueous MTS reagent (Promega, Madison, WI) was added to cells followed by a 3-h incubation at 37 °C, 5% CO2. The absorbance was measured at 490 nm using DTX 880 plate reader and the half maximal inhibitory concentration (IC50) was calculated using GraphPad Prism 7 (GraphPad Software, La Jolla, CA) and SAS/STAT software (SAS v9.4 for Windows, SAS Institute, Inc., Cary, NC).
Series [4] relates to primary AML patient blasts. Kind of series: MTS proliferation assay, primary AML blasts co-cultured with HS5-GFP stroma cells, 96 h. Type of series: cell-based, human. The note with it: HS5-GFP co-culture.
Text: For in vitro cytotoxicity experiments (Fig. 1b–d), repeated measures models were used to account for correlations among observations from the same experiment. The percentage of live cells was compared at each concentration with DMSO. […] Mixed effects models were used in experiments described in Additional file 1: Table S4 and Fig. 2c to account for correlations within a single patient. Outcome data were first log-transformed to stabilize variances and reduce skewness. For survival experiments (Figs. 5 and 6a), Kaplan-Meier curves were produced and group differences for Fig. 5 and assessed by the log-rank test and for Fig. 6a, p values have been adjusted for multiple comparisons using Holm’s procedure. p values from experiments with multiple endpoints were adjusted for multiple comparisons using either Holm’s procedure or Dunnett’s test (all comparisons against vehicle/DMSO).
as §2
A general note: Tetrazolium dyes change colour on reduction, which living cells bring about.

In series [5] the test system is MOLM-13, MV4-11, and OCI-AML3 cell lines. The series can be described thus: Annexin/PI apoptosis assay 72 h. Particulars: increasing concentrations of ARQ 531 or 50 nM gilteritinib. In kind it is cell-based, human. The protocol: Cells were treated for 72 h then stained for 20 min in 1X Annexin Binding buffer (BD Biosciences, Franklin Lakes, NJ) containing Annexin V-FITC and Propidium Iodine (Leinco Technologies, Fenton, MO). Live and apoptotic cells were measured using FC 500 flow cytometer and analyzed on Kaluza software (Beckman Coulter, Pasadena, CA).

In a further series the test system is MOLM-13. The series can be described thus: MTS proliferation assay 72 h, MOLM-13. The note with it: MOLM-13, 1 µM, 72 hours MTS (ibrutinib 1 hour washout).
A further series relates to BTK phosphorylation. The series can be described thus: Immunoblot of phospho-BTK. In kind it is cell-based, human. The protocol:
as §1, with “Cells” for “Cell lines were serum starved overnight followed by a 10-min treatment. Cells”
Immunoblot analysis for MOLM-13, MV4-11, and OCI-AML3 AML cell lines (representative of 2-3 independent blots). […] Twenty to 25 μg of total protein lysate was loaded per lane.
On the technique in general: In western blotting, separated proteins are transferred to a membrane and probed.

Series [6] relates to MOLM-13 disseminated AML xenograft. Kind of series: MOLM-13 disseminated xenograft, ARQ + Ven combination study (NCG mice). In kind it is in vivo. Particulars: 50 mg/kg ARQ 531 and/or 75 mg/kg venetoclax Q.D.P.O from 4 days post-engraftment until ERC; vehicle 25 days. The protocol:
All experiments were conducted after approval of The Ohio State University Institutional Animal Care and Use Committee. Mice were randomized and enrolled for daily oral gavage (Q.D.P.O) treatment of vehicle or 50 mg/kg ARQ 531. Mice were treated until reaching early removal criteria (ERC) defined as 20% weight loss, lethargy, hind limb paralysis, moribund, anorexia, dehydration, hunched posture, severe diarrhea, breathing difficulties, or any abnormal neurological symptoms. […]
Fig. 7 BCL2 inhibition improves ARQ 531 in vivo activity. a Kaplan–Meier survival curve in the MOLM-13 xenograft after mice were treated with vehicle (N = 9) or 50 mg/kg ARQ 531 Q.D.P.O (N = 9) or 75 mg/kg venetoclax Q.D.P.O (N = 10) or 50 mg/kg ARQ 531 and 75 mg/kg venetoclax combination Q.D.P.O (N = 10) at 4 days post engraftment until ERC. b Noninvasive serial whole body bioluminescence imaging of ventral view to monitor leukemia progression and regression post treatment. Mice were injected with 150 mg/kg Firefly D-Luciferin for evaluation of tumor burden as determined by whole body bioluminescence imaging using IVIS imager

The text below walks through data of publication PMC6988309, “Preclinical efficacy for a novel tyrosine kinase inhibitor, ArQule 531 against acute myeloid leukemia” (Journal of Hematology & Oncology, 2020).

By IC50 is commonly meant the concentration that gives 50% inhibition.

Several values for one entry are separate records, joined by “and”; a condition that tells them apart may be missing. Equal values may be shown once.

Method for Ba/F3 FLT3-ITD Parental: as §3

Take `CCc1nc(C(N)=O)c(Nc2ccc(N3CCC(N4CCN(C)CC4)CC3)c(OC)c2)nc1NC1CCOCC1` [Gilteritinib, reference compound]: the “effect on phosphorylated SYK (tyrosine 525/526)” value (“effect on phosphorylated SYK” below) in [1] is on record as “down-modulated SYK phosphorylation only in the FLT3-ITD cell lines”. The “Estimated ratio of colony formation vs. DMSO” value in series [2] is on record as 0.67. Moreover, the IC50 in [3] was 651 nM and 415 nM and 456 nM. The “Estimated Ratio of proliferation versus vehicle (DMSO)” value is given as 1.02 in series [4] (0.005 µM); 1.05 in series [4] (0.01 µM); 1.06 in series [4] (0.05 µM); 1.02 in series [4] (0.1 µM); 0.99 in series [4] (0.5 µM); 0.87 in series [4] (1 µM). In addition, the entries for the “Estimated Ratio of proliferation versus vehicle (DMSO)” value in series [4] (5 µM), in series [4] (10 µM) and in series [4] (50 µM) were 0.78, 0.56 and 0.54, respectively. In addition, in [5], the “apoptosis / cytotoxicity (Annexin/PI)” value was “cytotoxic in the FLT3-ITD cell lines only”.

`CO[C@@H]1[C@H](N(C)C(=O)c2ccccc2)C[C@H]2O[C@]1(C)n1c3ccccc3c3c4c(c5c6ccccc6n2c5c31)C(=O)NC4` [Midostaurin, reference compound]: the “effect on phosphorylated SYK” value in [1] is “down-modulated SYK phosphorylation only in the FLT3-ITD cell lines”. The IC50 in the series on Ba/F3 FLT3-ITD Parental was 95.4 nM and 63.3 nM.

In the case of `c1cn2cc(-c3ccc4cn[nH]c4c3)nc(Nc3ccc(N4CCOCC4)cc3)c2n1` [entospletinib, Entospletinib, reference compound], in the series with MOLM-13, the “in vitro anti-proliferative activity” value is “potently inhibited proliferation”.

As to `C=CC(=O)N1CCC[C@@H](n2nc(-c3ccc(Oc4ccccc4)cc3)c3c(N)ncnc32)C1` [ibrutinib, reference compound], the “in vitro anti-proliferative activity” value with MOLM-13 is on record as “only ARQ 531 demonstrated in vitro anti-proliferative activity”. The “effect on BTK phosphorylation” value in the series with BTK phosphorylation is on record as “potently inhibit BTK phosphorylation”.

As for `CC(C)(C)c1cc(NC(=O)Nc2ccc(-c3cn4c(n3)sc3cc(OCCN5CCOCC5)ccc34)cc2)no1` [quizartinib, Quizartinib], in [1], the “effect on phosphorylated SYK” value was “down-modulated SYK phosphorylation only in the FLT3-ITD cell lines”.

For `CC1(C)CCC(CN2CCN(c3ccc(C(=O)NS(=O)(=O)c4ccc(NCC5CCOCC5)c([N+](=O)[O-])c4)c(Oc4cnc5[nH]ccc5c4)c3)CC2)=C(c2ccc(Cl)cc2)C1` [venetoclax, reference compound], the survival in series [6] stood at 24 days.
